Test system: GH-release (serum GH-level)
Experiment: Depression of serum GH-levels in male rats 1 hour after s.c. administration (radio-immuno-assay)
Format: in vivo, rat
Settings: blood taken 1 hour after administration
Protocol: This test is carried out employing male rats. The test-substance is administered at varying, logarithmically staggered doses employing at least 5 rats per dose. 1 hour after s.c. administration of the test substance blood is taken. The determination of the blood serum GH-level is effected by radio-immuno-assay.

Compound: C[C@H](N)C(=O)NCC(=O)N[C@H]1CSSC[C@@H](C(=O)O)NC(=O)[C@H](CO)NC(=O)[C@H]([C@@H](C)O)NC(=O)[C@H](Cc2ccccc2)NC(=O)[C@H]([C@@H](C)O)NC(=O)[C@H](CCCCN)NC(=O)[C@H](Cc2c[nH]c3ccccc23)NC(=O)[C@H](Cc2ccccc2)NC(=O)[C@H](Cc2ccccc2)NC(=O)[C@H](CC(N)=O)NC(=O)[C@H](CCCCN)NC1=O [natural somatostatin, somatostatin]
- ID50 (amount of compound required to lower the GH content by 50% compared with untreated control animals): 0.95 mg/kg
